Values quoted from earlier work as cited in patent US20080287471A1, “4'-Substituted Carbovir And Abacavir-Derivatives As Well As Related Compounds With Hiv And Hcv Antiviral Activity” (priority 2003, published 2008).

System: HIV
Conditions: after a short course of abacavir monotherapy

Question: Which “average reduction in viral load” value does the source give for `Nc1nc(NC2CC2)c2ncn([C@H]3C=C[C@@H](CO)C3)c2n1` [abacavir, Abacavir] here?
Answer: more than 1.4 log 10 RNA copies/ml
